Results on 3 substances are retold here after US20190022167A1, “METHODS AND COMPOSITIONS FOR THE PREVENTION AND TREATMENT OF DUCHENNE MUSCULAR DYSTROPHY” (priority 2016, published 2019).

Series [1] relates to subjects suspected of having or diagnosed as having DMD. Nature of the series: Treatment of DMD in humans (Example 1). To be noted: for Effect of combination with one or more additional therapeutic agents: compared to peptides or additional agents alone, expected; for Severity of symptoms associated with DMD: daily 1%, 5% or 10% solution, predicted. The series is classed as in vivo, human. The source says:
(§1) Subjects suspected of having or diagnosed as having DMD receive daily administrations of 1%, 5% or 10% solution of aromatic-cationic peptide, such as 2′6′-Dmt-D-Arg-Phe-Lys-NH2, Phe-D-Arg-Phe-Lys-NH2, or D-Arg-2′6′-Dmt-Lys-Phe-NH2, or a pharmaceutically acceptable salt thereof, such as acetate, tartrate, hydrochloride salt, or trifluoroacetate salt, alone or in combination with one or more additional therapeutic agents for the treatment or prevention of DMD. Peptides and/or additional therapeutic agents selected from the group consisting of: corticosteroids, Oxandrolone, ACE inhibitors, P188(Poloxamer 188), beta-blockers, diuretics, angiotensin receptor blockers (ARBs), idebenone, alendronate, calcium with vitamin D, albuterol, dantrolene, pentoxifylline, carnitine, Coenzyme Q10, creatine, fish oil, green tea extracts, Vitamin E, PTC-124 (PTC Therapeutics Inc., South Plainfield, N.J.), AVI-4658 phosphorodiamidate morpholino oligomer, azathioprine and cyclosporine, are administered orally, topically, systemically, intravenously, subcutaneously, intraperitoneally, or intramuscularly according to methods known in the art. Dosages of the one or more additional therapeutic agents will range between 0.1 mg/kg to 50 mg/kg. Subjects will be evaluated weekly for the presence and/or severity of signs and symptoms associated with DMD, including, but not limited to, e.g., progressive proximal weakness with onset in the legs and pelvis, hyperlordosis with wide-based gait, hypertrophy of weak muscles, pseudohypertrophy (enlargement of calf and deltoid muscles with fat and fibrotic tissue), reduced muscle contractility on electrical stimulation in advanced stages of the disease, delayed motor milestones, progressive inability to ambulate, heel cord contractures, paralysis, fatigue, skeletal deformities including scoliosis, muscle fiber deformities, cardiomyopathy, congestive heart failure or arrhythmia, muscular atrophy, and respiratory disorders. Treatments are maintained until such a time as one or more signs or symptoms of DMD are ameliorated or eliminated.

Series [2] deals with subjects at risk of having DMD. Nature of the series: Prevention of DMD in humans (Example 2). Format: in vivo, human. To be noted: for Effect of combination with one or more additional therapeutic agents: compared to peptides or additional agents alone, expected; for Onset of DMD: daily 1%, 5% or 10% solution, predicted.
Text: as §1, with “at risk” for “suspected”, “of” for “of having or diagnosed as”, “P188 (Poloxamer” for “P188(Poloxamer”, “disorders.” for “disorders. Treatments are maintained until such a time as one or more signs or symptoms of DMD are ameliorated or eliminated.”

Series [3] deals with several mammalian cell types. Particulars: cited from earlier work.
The subject of series [4] is DBA/2J-mdx mice. Nature of the series: Left ventricular mitochondrial H2O2 emission in permeabilized muscle fiber bundles (spectrofluorometry, Amplex UltraRed) after 12 weeks of treatment. Particulars: 5 mg/kg daily subcutaneous for 12 weeks. The series is classed as in vivo, mouse. The procedure:
(§2) Left ventricular mitochondrial H2O2 emission (measured by spectrofluorometry; Amplex UltraRed fluorophore) and respiration (measured by high-resolution respirometry; Oroboros Oxygraph) were assessed in permeabilized muscle fiber bundles (PmFB) from DBA/2J-mdx mice (DMD mice) that were about 4 weeks of age, DBA/2J wildtype mice (wt mice) that were about 4 weeks of age, DMD mice treated with daily subcutaneous injections of Phe-D-Arg-Phe-Lys-NH2 (5mg/kg) for 12 weeks (treated DMD mice), and DMD mice treated with daily subcutaneous injections of […] for 12 weeks (untreated DMD mice). H2O2 emission was measured in the presence of physiological ADP (25 μM). ADP is a suppressor of H2O2 emission during respiration and is affected by the phosphate-shuttling activity of mitochondrial creatine kinase (mtCK). The effect of mtCK was assessed by saturating creatine (Cr) in vitro.

In series [5] the test system is DBA/2J-mdx mice. As to the kind of experiment: Left ventricular mitochondrial respiration in permeabilized muscle fiber bundles (high-resolution respirometry, Oroboros Oxygraph) after 12 weeks of treatment. Format: in vivo, mouse. Particulars: 5 mg/kg daily subcutaneous for 12 weeks; for ADP, complex I-supported respiration: treated DMD mice. As to the method:
as §2

Where no end group is shown, it is not given here. [ ]: non-standard residue; d: D form.

In the case of 2′6′-Dmt-D-Arg-Phe-Lys-NH2, in series [1], the “Effect of combination with one or more additional therapeutic agents” value (from here on “Effect of combination”) is listed as “synergistic effects” and the “Severity of symptoms associated with DMD” value was “reduced severity or elimination of symptoms associated with DMD”. In series [2], the “Effect of combination” value is listed as “synergistic effects” and the “Onset of DMD” value is given as “delayed onset of DMD, or prevention of onset of DMD”. Also, the “Penetration of the plasma membrane” value in series [3] is “readily penetrates the plasma membrane of several mammalian cell types in an energy-independent manner”.

D-Arg-2′6′-Dmt-Lys-Phe-NH2: in series [1], the “Effect of combination” value is on record as “synergistic effects” and the “Severity of symptoms associated with DMD” value is “reduced severity or elimination of symptoms associated with DMD”. In series [2], the “Effect of combination” value is recorded as “synergistic effects” and the “Onset of DMD” value is listed as “delayed onset of DMD, or prevention of onset of DMD”.

In the case of F[dR]FK-NH2, in series [1], the “Effect of combination” value is given as “synergistic effects” and the “Severity of symptoms associated with DMD” value is recorded as “reduced severity or elimination of symptoms associated with DMD”. The “mtCK-dependent ADP suppression of H2O2 emission, treated vs untreated DMD mice” value in the series on DBA/2J-mdx mice [4] is on record as “improved”. Moreover, in the series on DBA/2J-mdx mice [4] (+Cr, 25 μM ADP, treated DMD mice), the “ADP-suppression of Complex I-supported H2O2, % of emission at 0 μM ADP/O2 consumed” value is recorded as 12+/−1%. Also, the “ADP-suppression of Complex I-supported H2O2, % of 0 μM ADP/O2 consumed” value with DBA/2J-mdx mice [4] (—Cr, 25 μM ADP, treated DMD mice) is given as 40+/−11%. Also, in series [2], the “Effect of combination” value is on record as “synergistic effects” and the “Onset of DMD” value is listed as “delayed onset of DMD, or prevention of onset of DMD”. In addition, in the series with DBA/2J-mdx mice [5] (+Cr or —Cr), the “Respiration, treated vs untreated DMD mice” value is recorded as “did not change respiration”. Also, in the series with DBA/2J-mdx mice [5] (+Cr), the “ADP, complex I-supported respiration” value is reported as 111.4+/−12.0 pmol•s^−1•mg wet wt^−1. In addition, in the series with DBA/2J-mdx mice [5] (—Cr), the “ADP, complex I-supported respiration” value is reported as 59.6+/−7.4 pmol•s^−1•mg wet wt^−.
